Results: ChEMBL document CHEMBL1201862, “PubChem BioAssay data set” (2004)
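Growth conditions: 96-well plates. Treatment: test compound, 48 hours, 5 concentrations. Analysis: linear interpolation between bracketing concentrations; unreached endpoints set to highest concentration. Here, GI50 denotes the concentration required for 50% inhibition of growth.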 The source made the active and inactive calls. Cut-off read from the data, not from the text of the source: active = GI50 up to about 1.1 µM and inactive = higher.

Assays:
Assay in all cases: growth of human tumour cells (NCI), 48 h
NCI-H522 = test system: NCI-H522
MDA-MB-231 = test system: MDA-MB-231
SW-620 = test system: SW-620
OVCAR-4 = test system: OVCAR-4
SF-295 = test system: SF-295
LOX IMVI = test system: LOX IMVI
SK-MEL-28 = test system: SK-MEL-28
CAKI-1 = test system: CAKI-1
MDA-N = test system: MDA-N
ACHN = test system: ACHN
Hs-578T = test system: Hs-578T
DU-145 = test system: DU-145
K562 = test system: K562
M14 = test system: M14
SF-268 = test system: SF-268
MDA-MB-435 = test system: MDA-MB-435
TK-10 = test system: TK-10
HL-60 = test system: HL-60

SMILES | GI50 (NCI-H522) | GI50 (MDA-MB-231) | GI50 (SW-620) | GI50 (OVCAR-4) | GI50 (SF-295) | GI50 (LOX IMVI) | GI50 (SK-MEL-28) | GI50 (CAKI-1) | GI50 (MDA-N) | GI50 (ACHN) | GI50 (Hs-578T) | GI50 (DU-145) | GI50 (K562) | GI50 (M14) | GI50 (SF-268) | GI50 (MDA-MB-435) | GI50 (TK-10) | GI50 (HL-60)
Nc1c(S(N)(=O)=O)cc(S(N)(=O)=O)cc1S(N)(=O)=O | > 100 µM (inactive) | > 100 µM (inactive) | > 100 µM (inactive) | > 100 µM (inactive) | > 100 µM (inactive) | > 100 µM (inactive) | > 100 µM (inactive) | > 100 µM (inactive) | > 100 µM (inactive) | > 100 µM (inactive) | > 100 µM (inactive) | > 100 µM (inactive) | > 100 µM (inactive) | > 100 µM (inactive) | > 100 µM (inactive) | > 100 µM (inactive) | > 100 µM (inactive) | –
CCCCCCCCCC(=O)CC(=O)c1c(O)cc(O)cc1O | 20.2 µM (inactive) | 28.6 µM (inactive) | 25.6 µM (inactive) | 16.3 µM (inactive) | 25.9 µM (inactive) | 17.4 µM (inactive) | 23.3 µM (inactive) | 31.1 µM (inactive) | 16.9 µM (inactive) | 27 µM (inactive) | 18.5 µM (inactive) | 22.4 µM (inactive) | 15.2 µM (inactive) | 17.1 µM (inactive) | 18.4 µM (inactive) | 16.9 µM (inactive) | 30.4 µM (inactive) | 17.9 µM (inactive)
CC1(O)/C(=N/O)CC2CC1C2(C)C (centres undefined) | > 100 µM (inactive) | > 100 µM (inactive) | > 100 µM (inactive) | > 100 µM (inactive) | > 100 µM (inactive) | > 100 µM (inactive) | > 100 µM (inactive) | – | > 100 µM (inactive) | > 100 µM (inactive) | > 100 µM (inactive) | > 100 µM (inactive) | > 100 µM (inactive) | > 100 µM (inactive) | > 100 µM (inactive) | > 100 µM (inactive) | > 100 µM (inactive) | > 100 µM (inactive)
Cc1cc(C)n(CN(Cn2nc(C)cc2C)C2CCCCC2)n1 | 20.7 µM (inactive) | 26.6 µM (inactive) | 29.7 µM (inactive) | 24.2 µM (inactive) | 94 µM (inactive) | 0.0652 µM (active) | 20.7 µM (inactive) | 31.5 µM (inactive) | 19 µM (inactive) | 23.4 µM (inactive) | > 100 µM (inactive) | 24.3 µM (inactive) | – | 20.3 µM (inactive) | 33 µM (inactive) | 22.2 µM (inactive) | 44.4 µM (inactive) | –
Cc1cc(N(CCC#N)CCC#N)ccc1C(/N=N/c1ccc([N+](=O)[O-])cc1)=N\NC(=O)c1cc(Cl)ccc1C(=O)c1ccccc1 | 1.87 µM (inactive) | 11.2 µM (inactive) | 8.65 µM (inactive) | 9.2 µM (inactive) | 14.5 µM (inactive) | – | 20.2 µM (inactive) | 12.5 µM (inactive) | 18.9 µM (inactive) | 12.2 µM (inactive) | 17.4 µM (inactive) | 10.9 µM (inactive) | 9.84 µM (inactive) | 17.5 µM (inactive) | 6.07 µM (inactive) | 22.6 µM (inactive) | 16.9 µM (inactive) | –
CSc1nc(=O)c(C#N)c(-c2ccccc2)n1C1OC(COC(C)=O)C(OC(C)=O)C(OC(C)=O)C1OC(C)=O (centres undefined) | > 100 µM (inactive) | > 100 µM (inactive) | > 100 µM (inactive) | > 100 µM (inactive) | > 100 µM (inactive) | 98.4 µM (inactive) | > 100 µM (inactive) | > 100 µM (inactive) | > 100 µM (inactive) | > 100 µM (inactive) | 39.8 µM (inactive) | > 100 µM (inactive) | > 100 µM (inactive) | > 100 µM (inactive) | > 100 µM (inactive) | > 100 µM (inactive) | > 100 µM (inactive) | > 100 µM (inactive)
O=C(/C=C/c1ccccc1)Nc1ccccc1SCCCCl | 4.07 µM (inactive) | 11.4 µM (inactive) | 6.46 µM (inactive) | 12.1 µM (inactive) | 7.89 µM (inactive) | 8.81 µM (inactive) | > 47.4 µM (inactive) | 5.79 µM (inactive) | 6.38 µM (inactive) | 20 µM (inactive) | 6.81 µM (inactive) | 10.2 µM (inactive) | 9.66 µM (inactive) | 20.1 µM (inactive) | 14.4 µM (inactive) | 4.95 µM (inactive) | 55.7 µM (inactive) | 3.8 µM (inactive)
CC(NC(=O)C(C)C(=O)Nc1ccc(C(F)(F)F)cc1)C(N)=O (centres undefined) | > 100 µM (inactive) | > 100 µM (inactive) | > 100 µM (inactive) | – | > 100 µM (inactive) | – | – | > 100 µM (inactive) | > 100 µM (inactive) | > 100 µM (inactive) | > 100 µM (inactive) | > 100 µM (inactive) | > 100 µM (inactive) | > 100 µM (inactive) | > 100 µM (inactive) | > 100 µM (inactive) | – | > 100 µM (inactive)
O=C1c2ccccc2CC12Cc1ccc3c(c1C2=O)CCCC3 (centres undefined) | 5.21 µM (inactive) | 0.948 µM (active) | 6.32 µM (inactive) | 3.29 µM (inactive) | 5.96 µM (inactive) | 19.9 µM (inactive) | 47.2 µM (inactive) | – | 6.35 µM (inactive) | 7.83 µM (inactive) | 0.491 µM (active) | > 100 µM (inactive) | 21.6 µM (inactive) | 8.61 µM (inactive) | > 100 µM (inactive) | 21.7 µM (inactive) | > 100 µM (inactive) | 16.8 µM (inactive)
C/C(=N/NC(=S)Nc1ccccc1Cl)c1cccc(/C(C)=N\NC(=S)Nc2ccccc2Cl)n1 | 46.7 µM (inactive) | 12.2 µM (inactive) | 11.1 µM (inactive) | 28.4 µM (inactive) | > 100 µM (inactive) | 61.8 µM (inactive) | > 100 µM (inactive) | > 100 µM (inactive) | > 100 µM (inactive) | 55.5 µM (inactive) | > 100 µM (inactive) | > 100 µM (inactive) | 18.7 µM (inactive) | 22 µM (inactive) | > 100 µM (inactive) | > 100 µM (inactive) | 49.1 µM (inactive) | > 100 µM (inactive)
CC(=O)c1ccc(Br)cc1NC1=CC(=O)c2ncccc2C1=O | 3.27 µM (inactive) | 1.88 µM (inactive) | – | 1.83 µM (inactive) | 4.62 µM (inactive) | 5.79 µM (inactive) | 6.79 µM (inactive) | 7.59 µM (inactive) | 1.81 µM (inactive) | 3.6 µM (inactive) | 17.1 µM (inactive) | 4.36 µM (inactive) | 1.49 µM (inactive) | 2.22 µM (inactive) | 7.26 µM (inactive) | 1.69 µM (inactive) | 17.6 µM (inactive) | 1.64 µM (inactive)
O=C1N[C@@H]2c3c(Br)sc(Br)c3C(=O)[C@@H]2O1 | 0.703 µM (active) | 2.41 µM (inactive) | 1.96 µM (inactive) | 1.79 µM (inactive) | 17.2 µM (inactive) | 1.83 µM (inactive) | 2.62 µM (inactive) | 0.877 µM (active) | 2.44 µM (inactive) | 1.85 µM (inactive) | 19.7 µM (inactive) | 15 µM (inactive) | 0.887 µM (active) | 1.97 µM (inactive) | 7.66 µM (inactive) | 2.47 µM (inactive) | 6 µM (inactive) | 0.743 µM (active)
Cc1ccc(CS(=O)(=O)C/N=C2\Sc3ccccc3N\C2=C/C(=O)c2ccc(Cl)cc2)cc1 | > 10 µM (inactive) | > 10 µM (inactive) | > 10 µM (inactive) | 5.47 µM (inactive) | > 10 µM (inactive) | > 10 µM (inactive) | > 10 µM (inactive) | > 10 µM (inactive) | > 10 µM (inactive) | > 10 µM (inactive) | 9.55 µM (inactive) | > 10 µM (inactive) | > 10 µM (inactive) | > 10 µM (inactive) | 7.1 µM (inactive) | > 10 µM (inactive) | > 10 µM (inactive) | 1 µM (active)
Cc1cn(C2CC(N=[N+]=[N-])C(CO[Si](C)(C)C(C)(C)C)O2)c(=O)[nH]c1=O (centres undefined) | 16.8 µM (inactive) | 13.6 µM (inactive) | 16.9 µM (inactive) | 14.2 µM (inactive) | 17.3 µM (inactive) | 16.9 µM (inactive) | – | 16.4 µM (inactive) | 17 µM (inactive) | 21.8 µM (inactive) | 17.6 µM (inactive) | 21.6 µM (inactive) | 20.8 µM (inactive) | 21.4 µM (inactive) | 19.5 µM (inactive) | 18 µM (inactive) | 16.3 µM (inactive) | 28.7 µM (inactive)
Cc1cc2ccccc2c[n+]1CC(=O)CC([O-])(C(F)(F)F)C(F)(F)F | 85.1 µM (inactive) | > 100 µM (inactive) | > 100 µM (inactive) | > 100 µM (inactive) | > 100 µM (inactive) | > 100 µM (inactive) | > 100 µM (inactive) | > 100 µM (inactive) | > 100 µM (inactive) | > 100 µM (inactive) | > 100 µM (inactive) | > 100 µM (inactive) | 72.8 µM (inactive) | > 100 µM (inactive) | > 100 µM (inactive) | > 100 µM (inactive) | – | > 100 µM (inactive)
C=CCOc1ccc(C2C(C(=O)OCC)C(=O)CC(C)(O)C2C(=O)OCC)cc1OC (centres undefined) | > 100 µM (inactive) | > 100 µM (inactive) | > 100 µM (inactive) | > 100 µM (inactive) | > 100 µM (inactive) | > 100 µM (inactive) | > 100 µM (inactive) | > 100 µM (inactive) | > 100 µM (inactive) | > 100 µM (inactive) | > 100 µM (inactive) | > 100 µM (inactive) | > 100 µM (inactive) | > 100 µM (inactive) | > 100 µM (inactive) | > 100 µM (inactive) | > 100 µM (inactive) | > 100 µM (inactive)
